What was measured:
[1] = system: CMV strain PFA^r D100; experiment: plaque reduction assay, foscarnet-resistant strain PFA^r D100; format: cell-based, human CMV; conditions: Human betaherpesvirus 5, MRC5
Description: (§1) The anti-CMV activity of peptide AV-9 was evaluated against two ganciclovir-resistant and two foscarnet-resistant laboratory strains of human CMV in the continuous, human embryonic lung cell line MRC-5.
(§2) To perform the studies, peptide AV-9 was dissolved as a solid in sterile, deionized water to a final stock concentration of 10 mM. This stock solution was subsequently diluted in cell culture medium to obtain the test concentrations used in the study. Ganciclovir (GCV) was dissolved in sterile, deionized water, and the drug concentration measured spectrophotometrically (7.8mM). Foscarnet (phosphonoformic acid, PFA) was dissolved in sterile, deionized water to a final concentration of 100 mM. Aliquots of the stock solutions were stored at -70° C.
(§3) Drug-resistant human CMV strains 759^r D100, GDG^r K17, PFA^r D100 and PFA^r B300 were obtained from Dr. Donald M. Coen, Harvard Medical School, Boston, Mass. […]
(§4) Anti-CMV activity of peptide AV-9, ganciclovir (GCV) and foscarnet (PFA) was assessed by standard plaque reduction assay using 24-well microtiter plates. […]
(§5) MRC-5 cells (4-5×10^5 per well) were grown for 24 hours at 37° C. in 5% CO2 atmosphere in D-MEM/F-12FBS medium containing varying concentrations of drug. […] Vital plaques were counted under a microscope after removing the culture medium from the wells, staining the cells with 1.1% Crystal Violet solution, and washing twice with tap water. […]

[2] = system: CMV strain AD-169; experiment: plaque reduction assay, CMV AD-169 in MRC-5 cells; format: cell-based, human CMV; conditions: Human betaherpesvirus 5, AD169, MRC5, CMV AD-169, MRC-5 (human embryonic lung), 24 h drug pretreatment
Description: (§6) The following procedures were then used to determine inhibitory effects of AV-9 on the replication of CMV. […] This was accomplished by diluting the stock peptide solution in growth medium (10% fetal bovine serum and 10 μg/ml gentamicin in Dulbecco's MEM (DMEM)) used to overlay the monolayers.
(§7) After pretreatment with AV-9, the monolayers were overlaid with 0.1 ml log10 dilutions of virus (CMV strain AD-169) ranging from 10^-1 to 10^-6. Virus was then allowed to adsorb for 1 hour at 37° C. The virus inoculum was removed and the monolayers were overlayed with DMEM containing 2% FBS, 10 ug/ml gentamicin and a specified concentration of AV-9. Virus was next allowed to replicate for 7 to 10 days until the plaques were judged to be well developed, and then the monolayers were fixed and stained with a solution of 1% crystal violet in 1% formaldehyde,70% ethanol. Finally, plaques (each representing a single viable virion) were counted and checked microscopically.
(§8) In a like manner, plaque reduction assays were also performed against other CMV strains and another CMV host, with comparison against ganciclovir (GCV) and foscarnet (FCV).

[3] = system: CMV strain PFA^r B300; experiment: plaque reduction assay, foscarnet-resistant strain PFA^r B300; format: cell-based, human CMV; conditions: Human betaherpesvirus 5, MRC5
Description: as §1, §2, §3, §4, §5

[4] = system: CMV strain 759^r D100; experiment: plaque reduction assay, ganciclovir-resistant strain 759^r D100; format: cell-based, human CMV; conditions: Human betaherpesvirus 5, MRC5
Description: as §1, §2, §3, §4, §5

[5] = system: CMV strain GDG^r K17; experiment: plaque reduction assay, ganciclovir-resistant strain GDG^r K17; format: cell-based, human CMV; conditions: Human betaherpesvirus 5, MRC5
Description: as §1, §2, §3, §4, §5

[6] = system: CMV strain AD-169; experiment: CPE assay, CMV AD-169 in HFF cells; format: cell-based; conditions: Human betaherpesvirus 5, AD169, CMV AD-169, HFF (human foreskin fibroblast), without 24 h drug pretreatment
Source text: *CPE assay, all others are plaque reduction assays.

[7] = system: Smith strain of murine CMV; experiment: murine CMV infection in cyclophosphamide-immunosuppressed mice; format: in vivo, BALB/c mice
Source text: This immunosuppression model mimics the human patient situation, wherein the HCMV-induced disease in immunosuppressed individuals can often be fatal. The particular model used for evaluating potential antiviral activity has been described by Smee et al in J. Infect. Dis., 1991, 164: 958.
The Smith strain of murine CMV, obtained originally from the American Type Culture Collection (Rockville, Md.) was used. A mouse salivary gland preparation was used for the virus pool. An inoculation of 2×10^4 plaque forming units of the virus was used in the antiviral study. Female BALB/c mice weighing 10-12 g were quarantined 24 hr prior to use, and maintained on Wayne Lab Blox and tap water ad libitum the duration of the study.
Ganciclovir (DHPG) was purchased from a commercial source, and cyclophosphamide was purchased from Sigma Chemical Co. (St. Louis, Mo.).
To determine tissue virus titre, homogenates of infected mouse organs were titrated for virus using C127/I cells in 96-well microplates. Each tissue sample was homogenized and titrated separately with 3 micro wells used per dilution; plates were read by microscopic examination for viral-induced cytopathic effect, with 50% end points determined by the Reed-Muench method. Mean viral titers were expressed at 50% cell culture infectious doses (CCID50)/gram of tissue.
For statistical evaluation, increases in mean day to death and reductions in viral titers were assessed using the two-tailed Mann-Whitney U test. Total survivor increases were evaluated by chi square analysis with Yates'.

[8] = system: CMV strain AD-169; experiment: plaque reduction assay, CMV AD-169 in HFF cells; format: cell-based, human CMV; conditions: Human betaherpesvirus 5, AD169, CMV AD-169, HFF
Description: as §6
as §7, with “After pretreatment with AV-9, the monolayers were overlaid with 0.1 ml log10 dilutions of virus (CMV strain AD-169) ranging from 10^-1 to 10^-6.” left out
as §8

[9] = toxicity control mice, immunosuppressed, uninfected
Description: The mice were immunosuppressed by intraperitoneal (i.p.) injection with 100 mg/kg/day of cyclophosphamide administered on days -1, +3, +6, +10, +14 and +18 relative to virus inoculation. […] In a second portion of the study, the compound was administered i.p. in a dose of 0.1 mg/kg/day once daily from day -2 through +10. Ganciclovir in a dose of 50 mg/kg/day was injected i.p. once daily for 10 days beginning 24 hr post-virus exposure (days +1→+10). A total of 15 infected mice/dose were used. […] Five toxicity control mice were used at each dose; these mice were treated in parallel with the infected mice, and were weighed on the initial day of treatment and again 24 after the final treatment. […] Normal controls were weighed and held in parallel with the toxicity controls.

[10] = 50 mg/kg/day i.p. days +1 to +10, 9 days after virus challenge

## O=C(O)P(=O)(O)O [FCV, phosphonoformic acid]
[1]
  IC50: 234 µM
[2]
  IC50: 96 µM
[3]
  IC50: 385 µM

## Nc1nc2c(ncn2COC(CO)CO)c(=O)[nH]1 [GCV, 9-[(1,3-dihydroxy-2-propoxy)methyl]guanine, reference compound]
[4]
  IC50: 30.5 µM
[5]
  IC50: 6.1 µM
[6]
  IC50: 5.8 µM
[7]; 50 mg/kg/day i.p. days +1 to +10
  days after initiation of infection until first deaths: ≥ 21 days
[7]; [10]
  Tissue Virus Titer ± S.D., Lung: 0 ± 0.0 log10 CCID50/g
  Tissue Virus Titer ± S.D., Salivary Gland: 3.5 ± 0.9 log10 CCID50/g
  Tissue Virus Titer ± S.D., Spleen: 0.5 ± 1.2 log10 CCID50/g
[7]; infected mice, 50 mg/kg/day i.p., days +1 through +10
  Surv/Total: 0/10
[7]; infected mice, 50 mg/kg/day i.p., days +1 through +10, P<0.01 vs saline
  Mean Day to Death ± S.D.: 22.9 ± 1.1 days
[8]
  IC50: 2 µM
[9]; 50 mg/kg/day i.p. days +1 to +10, start of treatment to 24 hr after final treatment
  Mean Body Weight Change: 4.2 g
[9]; toxicity controls, 50 mg/kg/day i.p., days +1 through +10
  Surv/Total: 5/5

— patent publication US5633230A, “Treatment of cytomegalovirus infection” (priority 1994, dated 1997)
